Data on two compounds can be found in paper PMC3543423, “Structure Prediction and Validation of the ERK8 Kinase Domain” (PLoS ONE, 2013).

The target of this experiment is T1, ERK8 (Homo sapiens, UniProt Q8TD08).
T1 construct: gene MAPK15; full-length GST-ERK8 (baculovirus-expressed, GST-ERK8Bac)
T1 sequence (Q8TD08 1-544): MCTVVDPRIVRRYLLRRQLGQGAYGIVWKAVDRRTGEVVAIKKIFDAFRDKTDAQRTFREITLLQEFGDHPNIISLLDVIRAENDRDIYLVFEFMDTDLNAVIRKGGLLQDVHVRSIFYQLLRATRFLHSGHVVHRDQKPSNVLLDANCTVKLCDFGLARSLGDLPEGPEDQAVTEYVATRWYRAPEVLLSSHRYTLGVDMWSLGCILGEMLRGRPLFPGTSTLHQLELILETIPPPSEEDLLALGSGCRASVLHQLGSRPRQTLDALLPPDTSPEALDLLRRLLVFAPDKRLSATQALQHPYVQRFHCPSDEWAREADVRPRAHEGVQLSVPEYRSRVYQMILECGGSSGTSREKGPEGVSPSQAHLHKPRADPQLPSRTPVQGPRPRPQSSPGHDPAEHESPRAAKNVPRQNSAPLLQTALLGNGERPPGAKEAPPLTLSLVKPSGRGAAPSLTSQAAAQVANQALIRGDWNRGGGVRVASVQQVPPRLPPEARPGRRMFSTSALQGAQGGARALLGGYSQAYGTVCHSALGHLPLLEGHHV
Kind of experiment: radiometric [γ-32P]ATP kinase assay with MBP substrate, dose/response; ATP competition; reduced inhibition of F92I mutant. The class given is biochemical.

Broadly, the IC50 is the midpoint of a concentration-inhibition curve. Read a low IC50 as higher potency. `CCOC(=O)c1c(C(=O)CSc2nc(-c3ccccc3)cc(-c3ccc(OC)cc3)c2C#N)sc2c1CCCC2` [ITT53] yielded an IC50 of 27 µM. That is a double-digit micromolar value.
In the case of `COc1ccccc1NC(=O)c1cccc(Nc2nc(-c3ccccc3)c3cc(Br)ccc3n2)c1` [ITT57], the IC50 is 17 µM.
